Assay results: patent US20230302131A1, “MPC INHIBITION FOR PRODUCING T-CELLS WITH A MEMORY PHENOTYPE” (UNIVERSITÉ DE LAUSANNE, priority 2020, published 2023)

Tested on: adult human CD8 T cells
Experiment: Adult human PBMC activation with anti-CD3/CD28 beads, T cell phenotype by flow cytometry
Type: cell-based
Conditions: adult PBMCs, day 9, vs DMSO
Protocol: FIG. 7: MPC inhibition during the activation and culture of adult human T cells induces a memory phenotype. (A) Experimental design. PBMCs were isolated from adult healthy volunteers and activated with anti-CD3/CD28 beads in the presence of DMSO or UK5099 (25 μM). Beads were removed at day 5 and T cell phenotype was analysed at day 9. (B) Percentage of CD8 T cells expressing the memory marker CD62L. (C) The mean fluorescent intensity of CD62L in the respective positive population. (D) Percentage of CD8 T cells expressing markers that allows their identification as stem cell memory T cells (TSCM). (E-F) Mitochonrial mass (identified by MitoGreen staining, E) and mitochondrial membrane potential (TMRM, F), measured by flow cytometry and expressed as fold change as compared to DMSO. (G) Mitochondrial membrane potential normalized for the mitochondrial mass, expressed as the ratio of […], fold change as compared to DMSO. Pooled data from 2 independant experiments. ns: non-significant, *p<0.05, **[…], ***p<0.001. Data represents mean±s.e.m.
Heparinised blood was diluted with PBS and pipetted on top of Ficoll-paque (LymphoPrep). After centrifugation at 1800 rpm for 20 minutes at room temperature, the layer of cells at the intersection, containing the PBMCs was removed, washed and resuspended at 5×10^5 cells/ml of RPMI medium containing 8% human serum (AB serum), antibiotics, 2 mM L-Glutamine, 1% non-essential amino acids, 1 mM sodium pyruvate and 50 μM β-mercaptoethanol (all Gibco). Cells were activated with Human T-activator CD3/CD28 Dynabeads at a 1 bead/cell ratio with 150 IU/ml human recombinant IL2 and DMSO or 25 μM UK5099. Throughout the culture, cells were regularly split when necessary and beads were removed at day 5. At day 9, a fraction of the cells was stained with antibodies for flow cytometry analysis or for mitochondrial analysis.

Q: With `CC(C)(O)CNc1nc(Nc2ccnc(C(F)(F)F)c2)nc(-c2cccc(C(F)(F)F)n2)n1` [AG221] as the compound, how does the “population of CD8 T cells positive for CD62L” value (UK5099 25 μM) read?
A: Its value is “further induce”.

Q: And the “mean fluorescent intensity of the CD62L signal in the CD62L-positive cells” value?
A: The value was “increased”.
